Experimental data as given in US6239171A, “Tocotrienols and tocotrienol-like compounds and methods for their use” (Lipogenics, Inc., priority 1998, dated 2001).

Key:
Type in all cases: in vivo, chicken
[1] = system: chickens; assay: Plasma thromboxane B2 and platelet factor 4 in chickens fed supplemented diets; conditions: 4 weeks
Source text: We next measured the effects of TRF and its components on serum levels of apolipoprotein (a)1, apolipoprotein B, triglycerides and glucose and the plasma levels of thromboxane B2 and platelet factor 4.

[2] = system: chickens; assay: Serum cholesterol, apolipoproteins, triglycerides and glucose in chickens fed supplemented diets; conditions: 4 weeks; for increase in the HDL-/LDL-cholesterol ratio / reduction of serum cholesterol: 100 ppm in diet
Source text: All assays conducted on chicken or swine serum were done following the protocols described in A. A. Qureshi et al., "Lowering Of Serum Cholesterol In Hypercholesterolemic Humans By Tocotrienols" (Palmvitee), Am. J. Clin. Nutr., 53, pp. 1021S-26S (1991). All enzymatic assays were done following the protocols described in A. A. Qureshi et al., "Effects of Cereals and Culture Filtrate of Trichoderma viride on Lipid Metabolism of Swine", Lipids, 17, pp. 924 (1982). Plasma insulin, glucagon and TNF levels were measured using radioinnumoassay kits from Ventrex Laboratories, Inc. (Portland, Me.), ICN Biomedicals, Inc. (Costa Mesa, Calif.) and Genzyme Corp. (Cambridge, Mass.), respectively. […]
Each group of 6 chickens (6-week old female while leghorn) was administered the chick mash diet described in Example 5, supplemented with one of three different amounts of waxes (sterols), 50 ppm of TRF (prepared as in Example 2) or 5% equivalent of the methanol insoluble fraction Louisiana rice bran oil. […] The birds were fasted for a period of 14 hours prior to sacrifice (at 0800 hours). […]

[3] = system: chickens; assay: Antibody titers to sheep red blood cells in chickens; conditions: 4 weeks, sheep red blood cells i.p.
Experimental: The model for this study was 6-week old female white leghorn chickens. Each group of 12 chickens was fed an unsupplemented chicken diet or a control diet supplemented with 50 ppm of a tocotrienol or 100 ppm of a commercially available hypercholesterolemic agent (Geraniol or Lovastatin). […] The chickens were fed over a period of 4 weeks, then the blood was drawn. The antibody response was determined by injecting the chickens i.p. with 0.5 ml of a 5% suspension of sheep red blood cells (RBCs) in PBS (v/v) which were previously washed three times. […] Relative IgG levels were determined by using 2-mercaptoethanol preincubation for 30 min. The relative IgM levels were calculated by subtracting the IgG antibody levels from total antibody levels. All antibody levels are expressed as the log base 2 of the highest titer that was needed to hemagglutinate an equal volume of 0.5% RBC suspension.

[4] = system: cholesterol 7α-hydroxylase; assay: Hepatic cholesterol 7α-hydroxylase activity in chickens fed supplemented diets; conditions: 4 weeks
Experimental: (§1) This example measured the effects of the TRF and its components on the hepatic enzymatic activity of HMG-CoA reductase and cholesterol 7α-hydroxylase. […] The amount of feed consumed ranged from 11.19-11.60 g per chicken and the feeding period was 4 weeks. The birds were fasted for a period of 36 hours and refed for 48 hours prior to sacrifice (at 0800 hours).

[5] = biological target: T1, HMG-CoA reductase (Homo sapiens, UniProt P04035); assay: Hepatic HMG-CoA reductase activity in chickens fed supplemented diets; conditions: 4 weeks
T1 construct: hepatocytes isolated from livers of 8-week old female chickens; endogenous in cells; host or cells: primary chicken hepatocytes
T1 sequence (P04035 1-888): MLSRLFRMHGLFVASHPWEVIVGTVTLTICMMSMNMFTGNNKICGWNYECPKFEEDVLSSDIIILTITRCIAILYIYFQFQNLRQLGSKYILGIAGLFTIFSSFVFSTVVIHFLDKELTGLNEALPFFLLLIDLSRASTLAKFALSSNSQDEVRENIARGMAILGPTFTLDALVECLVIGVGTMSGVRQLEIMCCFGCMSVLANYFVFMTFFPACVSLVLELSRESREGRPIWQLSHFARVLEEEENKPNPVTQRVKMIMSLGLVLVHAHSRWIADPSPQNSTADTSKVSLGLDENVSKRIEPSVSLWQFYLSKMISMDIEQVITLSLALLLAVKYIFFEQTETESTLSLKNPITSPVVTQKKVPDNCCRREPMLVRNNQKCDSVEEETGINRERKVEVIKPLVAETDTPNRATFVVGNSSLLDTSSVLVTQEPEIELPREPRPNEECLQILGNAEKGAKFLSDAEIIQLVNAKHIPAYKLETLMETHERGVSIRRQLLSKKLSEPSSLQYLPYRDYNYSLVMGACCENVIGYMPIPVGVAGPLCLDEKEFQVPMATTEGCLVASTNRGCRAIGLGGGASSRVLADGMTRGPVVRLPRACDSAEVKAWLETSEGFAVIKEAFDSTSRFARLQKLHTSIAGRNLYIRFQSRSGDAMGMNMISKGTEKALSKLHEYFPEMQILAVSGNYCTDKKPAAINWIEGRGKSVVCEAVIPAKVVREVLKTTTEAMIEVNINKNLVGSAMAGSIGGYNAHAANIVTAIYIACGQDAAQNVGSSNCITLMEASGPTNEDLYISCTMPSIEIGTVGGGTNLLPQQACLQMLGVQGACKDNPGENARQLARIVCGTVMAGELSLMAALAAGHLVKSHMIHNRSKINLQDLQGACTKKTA
Experimental: as §1

CC[C@H](C)C(=O)O[C@H]1C[C@@H](C)C=C2C=C[C@H](C)[C@H](CC[C@@H]3C[C@@H](O)CC(=O)O3)[C@H]21 [Lovastatin]
Platelet Factor 4 ([1]; control diet + 100 ppm): 12.24 ng/mL | Platelet Factor 4, percentage of control ([1]; control diet + 100 ppm): 93.51% | Thromboxane B2 ([1]; control diet + 100 ppm): 24.89 pg/mL | Thromboxane B2, percentage of control ([1]; control diet + 100 ppm): 96.32% | increase in the HDL-/LDL-cholesterol ratio [2]: ≤ 31.5% | reduction of serum cholesterol [2]: 10% | APO A1, percentage of control ([2]; control diet + 100 ppm): 99.29% | APO A1 in serum ([2]; control diet + 100 ppm): 139.9 mg/100 ml | APO B in serum ([2]; control diet + 100 ppm): 25.80 mg/100 ml | APO B, percentage of control ([2]; control diet + 100 ppm): 77.95% | DL-Cholesterol/Total Cholesterol ([2]; control diet + 100 ppm): 0.63 | DL-Cholesterol/Total Cholesterol, percentage of control ([2]; control diet + 100 ppm): 108.00% | Glucose in serum ([2]; control diet + 100 ppm): 220.10 mg/100 ml | Glucose, percentage of control ([2]; control diet + 100 ppm): 98.13% | HDL-Cholesterol in serum ([2]; control diet + 100 ppm): 81.38 ± 0.73 mg/dL | HDL-Cholesterol, percentage of control ([2]; control diet + 100 ppm): 97.28% | HDL-Cholesterol/LDL-Cholesterol ([2]; control diet + 100 ppm): 1.84 | HDL-Cholesterol/LDL-Cholesterol, percentage of control ([2]; control diet + 100 ppm): 121.40% | LDL-Cholesterol in serum ([2]; control diet + 100 ppm): 44.12 ± 1.26 mg/dL | LDL-Cholesterol, percentage of control ([2]; control diet + 100 ppm): 86.51% | Total Cholesterol in serum ([2]; control diet + 100 ppm): 128.65 ± 1.02 mg/dL | Total Cholesterol, percentage of control ([2]; control diet + 100 ppm): 90.11% | Triglycerides in serum ([2]; control diet + 100 ppm): 64.04 mg/100 ml | Triglycerides, percentage of control ([2]; control diet + 100 ppm): 86.51% | IgG antibody titers in serum ([3]; control diet + 100 ppm): 1.00 ± 0.00 Log 2 | IgM antibody titers in serum ([3]; control diet + 100 ppm): 5.90 Log 2 | Total Ab titers in serum ([3]; control diet + 100 ppm): 6.33 ± 1.44 Log 2 | Cholesterol 7α-Hydroxylase, percentage of control ([4]; control diet + 100 ppm): 110.96% | Cholesterol 7α-hydroxylase ([4]; control diet + 100 ppm): 11.34 nmol/min/mg

CC(C)=CCC/C(C)=C/CO [Geraniol]
HMG-CoA Reductase, percentage of control ([5]; control diet + 100 ppm): 87.65% | Platelet Factor 4 ([1]; control diet + 100 ppm): 12.38 ng/mL | Platelet Factor 4, percentage of control ([1]; control diet + 100 ppm): 94.57% | Thromboxane B2 ([1]; control diet + 100 ppm): 25.46 pg/mL | Thromboxane B2, percentage of control ([1]; control diet + 100 ppm): 98.53% | increase in the HDL-/LDL-cholesterol ratio [2]: ≤ 31.5% | reduction of serum cholesterol [2]: 14% | APO A1, percentage of control ([2]; control diet + 100 ppm): 98.58% | APO A1 in serum ([2]; control diet + 100 ppm): 138.40 mg/100 ml | APO B in serum ([2]; control diet + 100 ppm): 29.20 mg/100 ml | APO B, percentage of control ([2]; control diet + 100 ppm): 88.22% | DL-Cholesterol/Total Cholesterol ([2]; control diet + 100 ppm): 0.65 | DL-Cholesterol/Total Cholesterol, percentage of control ([2]; control diet + 100 ppm): 110.10% | Glucose in serum ([2]; control diet + 100 ppm): 227.60 mg/100 ml | Glucose, percentage of control ([2]; control diet + 100 ppm): 101.47% | HDL-Cholesterol in serum ([2]; control diet + 100 ppm): 82.28 ± 1.06 mg/dL | HDL-Cholesterol, percentage of control ([2]; control diet + 100 ppm): 98.35% | HDL-Cholesterol/LDL-Cholesterol ([2]; control diet + 100 ppm): 2.00 | HDL-Cholesterol/LDL-Cholesterol, percentage of control ([2]; control diet + 100 ppm): 131.50% | LDL-Cholesterol in serum ([2]; control diet + 100 ppm): 41.07 ± 1.13 mg/dL | LDL-Cholesterol, percentage of control ([2]; control diet + 100 ppm): 96.30% | Total Cholesterol in serum ([2]; control diet + 100 ppm): 122.53 ± 1.37 mg/dL | Total Cholesterol, percentage of control ([2]; control diet + 100 ppm): 85.82% | Triglycerides in serum ([2]; control diet + 100 ppm): 71.29 mg/100 ml | Triglycerides, percentage of control ([2]; control diet + 100 ppm): 96.30% | IgG antibody titers in serum ([3]; control diet + 100 ppm): 1.00 ± 0.00 Log 2 | IgM antibody titers in serum ([3]; control diet + 100 ppm): 5.42 Log 2 | Total Ab titers in serum ([3]; control diet + 100 ppm): 5.60 ± 2.11 Log 2 | Cholesterol 7α-Hydroxylase, percentage of control ([4]; control diet + 100 ppm): 100.59% | Cholesterol 7α-hydroxylase ([4]; control diet + 100 ppm): 10.28 nmol/min/mg

CC(C)=CCC/C(C)=C/CC/C(C)=C/CCC1(C)CCc2cc(O)cc(C)c2O1 (stereo not drawn) [δ-T3, δ-tocotrienol]
HMG-CoA Reductase, percentage of control ([5]; control diet + 50 ppm): 75.83% | Platelet Factor 4 ([1]; control diet + 50 ppm): 8.23 ng/mL | Platelet Factor 4, percentage of control ([1]; control diet + 50 ppm): 62.87% | Thromboxane B2 ([1]; control diet + 50 ppm): 18.65 pg/mL | Thromboxane B2, percentage of control ([1]; control diet + 50 ppm): 72.17% | APO A1, percentage of control ([2]; control diet + 50 ppm): 99.22% | APO A1 in serum ([2]; control diet + 50 ppm): 139.30 mg/100 ml | APO B in serum ([2]; control diet + 50 ppm): 27.30 mg/100 ml | APO B, percentage of control ([2]; control diet + 50 ppm): 82.48% | DL-Cholesterol/Total Cholesterol ([2]; control diet + 50 ppm): 0.65 | DL-Cholesterol/Total Cholesterol, percentage of control ([2]; control diet + 50 ppm): 111.30% | Glucose in serum ([2]; control diet + 50 ppm): 205.30 mg/100 ml | Glucose, percentage of control ([2]; control diet + 50 ppm): 91.53% | HDL-Cholesterol in serum ([2]; control diet + 50 ppm): 77.78 ± 0.97 mg/dL | HDL-Cholesterol, percentage of control ([2]; control diet + 50 ppm): 93.08% | HDL-Cholesterol/LDL-Cholesterol ([2]; control diet + 50 ppm): 2.15 | HDL-Cholesterol/LDL-Cholesterol, percentage of control ([2]; control diet + 50 ppm): 141.80% | LDL-Cholesterol in serum ([2]; control diet + 50 ppm): 36.14 ± 0.97 mg/dL | LDL-Cholesterol, percentage of control ([2]; control diet + 50 ppm): 65.64% | Total Cholesterol in serum ([2]; control diet + 50 ppm): 119.40 ± 1.41 mg/dL | Total Cholesterol, percentage of control ([2]; control diet + 50 ppm): 83.63% | Triglycerides in serum ([2]; control diet + 50 ppm): 60.50 mg/100 ml | Triglycerides, percentage of control ([2]; control diet + 50 ppm): 81.72% | IgG antibody titers in serum ([3]; control diet + 50 ppm): 1.00 Log 2 | IgM antibody titers in serum ([3]; control diet + 50 ppm): 8.25 ± 1.96 Log 2 | Total Ab titers in serum ([3]; control diet + 50 ppm): 8.67 ± 1.78 Log 2 | Cholesterol 7α-Hydroxylase, percentage of control ([4]; control diet + 50 ppm): 107.44% | Cholesterol 7α-hydroxylase ([4]; control diet + 50 ppm): 10.98 nmol/min/mg
